{"source": "paper PMC11869342", "about": "“Design and synthesis of novel HDAC6 inhibitor dimer as HDAC6 degrader for cancer treatment by palladium catalysed dimerisation” (Journal of Enzyme Inhibition and Medicinal Chemistry, 2025)", "key": {"PC-3 cells": {"test_system": "PC-3 cells", "experiment": "Sulforhodamine B (SRB) assay, PC-3", "type": "cell-based", "conditions": "Homo sapiens; PC-3 cells, SRB, 48 h; read-out: GI50 con. ± SEM PC-3", "experimental": "(§1) The A549 and PC-3 human lung and prostate cancer cell lines were acquired from the American Type Culture Collection (Rockville, MD). […] The cultures were kept in a 37 °C incubator with 5% CO2. When the adherent cultures reached 80% confluence, they were passaged using 0.05% trypsin-EDTA. PC-3 and A549 cells were seeded into 96-well plates in RPMI medium with 5% (v/v) foetal bovine serum for 24 h. Cells in partial wells were fixed with 10% trichloroacetic acid (TCA) to represent the initial time of compound treatment. The cells were treated with or without the indicated compound for 48 h and then were fixed with 10% TCA. After the washout with ddH2O and air-dried, SRB at 0.4% (w/v) in 1% acetic acid was added for staining. Unbound SRB was washed with 1% acetic acid and SRB-bounded cells were solubilised with 10 mM Tris base. The absorbance was read at a wavelength of 515 nm for the determination of cell growth."}, "A549 cells": {"test_system": "A549 cells", "experiment": "Sulforhodamine B (SRB) assay, A549", "type": "cell-based", "conditions": "Homo sapiens; A549 cells, SRB, 48 h; read-out: GI50 con. ± SEM A549", "experimental": "as §1"}, "Ac-α-tubulin": {"test_system": "Ac-α-tubulin", "experiment": "Western blotting of Ac-α-tubulin in PC-3 cells", "type": "cell-based, human", "conditions": "30 μM, 24 h", "experimental": "Figure 3. Western blotting analysis of (a) HDAC6 protein in PC-3 cells treated with various dimer compounds at 30 μM for 24 h, (b) Ac-α-tubulin protein in PC-3 cells treated with various dimer compounds at 30 μM for 24 h, (c) LC-3 I, LC-3 II, and p62 proteins in PC-3 cells treated with various dimer compounds at 30 μM for 24 h, (d) PARP-1 and Caspase-3 proteins in PC-3 cells treated with various dimer compounds at 30 μM for 24 h, (e) p-BUBR1^S670 and p-BUBR1^T680 proteins in PC-3 cells treated with various dimer compounds at 30 μM for 24 h. Glyceraldehyde 3-phosphate dehydrogenase (GAPDH) was used as the loading control.\nAfter compound treatment, the cells were harvested and centrifuged. […] The supernatants quantified by Bio-Rad protein assay kit (Bio-Rad Laboratories, Hercules, CA) were mixed with sample buffer (0.3 M Tris pH6.8, 10% SDS, 50% glycerol, 10% β-mercaptoethanol, and 0.02% bromophenol blue) and heated at 95 °C for 10 min. The protein (30 µg) was separated by electrophoresis in 8% or 12% SDS-PAGE, transferred to PVDF membranes, and detected with specific antibodies (1:1000 dilution for the first and 1:7000 for the second antibodies). The immunoreactive proteins were detected with an enhanced chemiluminescence detection kit (Amersham, Buckinghamshire, UK) and the images were captured by ChemiDoc™ MP System (Bio-Rad Laboratories, Hercules, CA)."}, "[1]": {"experiment": "Solubility as observed when conducting assays", "type": "physicochemical"}, "HDAC6": {"target": "T1, HDAC6 (Homo sapiens, UniProt Q9UBN7)", "T1 sequence (Q9UBN7 1-1215)": "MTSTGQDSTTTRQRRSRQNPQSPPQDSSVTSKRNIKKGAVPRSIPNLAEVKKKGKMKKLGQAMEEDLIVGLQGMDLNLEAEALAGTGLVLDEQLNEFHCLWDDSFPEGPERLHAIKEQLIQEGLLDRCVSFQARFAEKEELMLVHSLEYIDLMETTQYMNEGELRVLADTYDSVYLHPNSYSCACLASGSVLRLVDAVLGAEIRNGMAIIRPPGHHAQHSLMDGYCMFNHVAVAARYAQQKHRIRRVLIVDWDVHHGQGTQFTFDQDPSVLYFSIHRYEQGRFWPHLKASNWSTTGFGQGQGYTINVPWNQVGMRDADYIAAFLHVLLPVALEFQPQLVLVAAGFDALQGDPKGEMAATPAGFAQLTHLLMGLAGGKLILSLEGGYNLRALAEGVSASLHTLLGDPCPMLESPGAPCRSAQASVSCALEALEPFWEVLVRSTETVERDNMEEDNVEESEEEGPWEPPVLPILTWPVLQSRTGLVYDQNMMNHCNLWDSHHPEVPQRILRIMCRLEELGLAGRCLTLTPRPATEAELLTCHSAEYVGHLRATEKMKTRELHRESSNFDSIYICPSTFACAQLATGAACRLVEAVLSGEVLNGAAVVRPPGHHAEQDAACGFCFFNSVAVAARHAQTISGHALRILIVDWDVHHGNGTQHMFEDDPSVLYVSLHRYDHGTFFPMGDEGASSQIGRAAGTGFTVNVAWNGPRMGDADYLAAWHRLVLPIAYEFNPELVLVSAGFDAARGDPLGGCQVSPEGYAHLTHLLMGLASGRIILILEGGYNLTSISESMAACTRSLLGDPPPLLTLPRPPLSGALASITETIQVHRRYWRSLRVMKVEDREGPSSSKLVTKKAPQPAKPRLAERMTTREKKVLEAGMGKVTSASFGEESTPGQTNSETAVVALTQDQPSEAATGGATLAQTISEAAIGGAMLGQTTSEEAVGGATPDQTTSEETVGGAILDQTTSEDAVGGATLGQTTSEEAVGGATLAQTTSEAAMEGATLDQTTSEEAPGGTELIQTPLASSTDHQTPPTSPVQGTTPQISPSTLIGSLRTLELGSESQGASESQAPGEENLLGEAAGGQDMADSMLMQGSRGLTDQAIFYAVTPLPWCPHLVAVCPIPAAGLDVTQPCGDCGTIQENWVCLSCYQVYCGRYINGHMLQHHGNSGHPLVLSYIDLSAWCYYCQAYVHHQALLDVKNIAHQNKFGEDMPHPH", "experiment": "HDAC enzyme activity assay (Reaction Biology), HDAC6", "type": "biochemical", "parameters": "Full-length recombinant hHDAC 6 was expressed in a baculovirus expression system in SF9 cells; purchased Reaction Biology Corporation (Malvern, PA); host or cells: baculovirus / SF9 insect cells", "conditions": "full-length recombinant hHDAC 6, RHKKAc substrate 50 μM, 2 h at 30 °C", "experimental": "HDAC inhibition assays were performed by Reaction Biology Corporation (Malvern, PA). Full-length recombinant hHDAC 6 was expressed in a baculovirus expression system in SF9 cells. […] The reaction was stopped after 2 h at 30 °C . Trichostatin A was used as an internal control."}}}
{"smiles": "O=C(NO)c1ccc(Cn2c(=O)n(CCc3ccc(NCCOCCOCCOCCNc4ccc(CCn5c(=O)c6ccccc6n(Cc6ccc(C(=O)NO)cc6)c5=O)cc4)cc3)c(=O)c3ccccc32)cc1", "note": "[Compound 6a, 4-({3-[2-(4-{2-[2–(2-{2-[4-(2-{1-[(4-Hydroxamophenyl)methyl]-2,4-dioxoquinazolin-3-yl}ethyl)phenylamino]ethoxy}ethoxy)ethoxy]ethylamino}phenyl)ethyl]-2,4-dioxoquinazolin-1-yl}methyl)benzohydroxamic acid]", "values": [{"measurement": "GI50", "setting": "PC-3 cells", "value": "> 30", "unit": "µM"}, {"measurement": "GI50", "setting": "A549 cells", "value": "> 30", "unit": "µM"}, {"measurement": "Ac-α-tubulin level (Western blot)", "setting": "Ac-α-tubulin", "value": "unenhanced acetylated α-tubulin"}, {"measurement": "solubility observed when conducting assays", "setting": "[1]", "value": "poor solubilities"}, {"measurement": "IC50", "setting": "HDAC6", "value": "> 10", "unit": "µM"}]}
